# US7074789B2, “Kinase inhibitors” (Amgen Inc., priority 1999, dated 2006)
# pIC50: −log10 of the molar value. Where two headings read alike, the source gives them in different places.
# Legend:
# Assay type in all cases: biochemical
# Lck = biological target: T1, Lck (Homo sapiens, UniProt P06239); test: Kinase inhibition assay (33P transfer), Lck; settings: read-out: Lck-1
# T1 construct: Kinases are expressed as either kinase domains or full length constructs; made in house
# How it was run: (§1)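 Kinase domain or full-length constructs, GST- or polyHis-tagged, expressed in E. coli or baculovirus-High Five cells, sometimes with regulatory polypeptides. Activity measured as 33PO4 transfer from ATP to plate-bound poly(Glu,Tyr) 4:1 or poly(Arg,Ser) 3:1; after incubation, plates washed with 0.5% phosphoric acid and counted by liquid scintillation.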
# Zap-70 = biological target: T2, Zap-70 (Homo sapiens, UniProt P43403); test: Kinase inhibition assay (33P transfer), Zap-70; settings: read-out: Zap-1
# T2 construct: Kinases are expressed as either kinase domains or full length constructs; made in house
# T2 sequence (P43403 1-619): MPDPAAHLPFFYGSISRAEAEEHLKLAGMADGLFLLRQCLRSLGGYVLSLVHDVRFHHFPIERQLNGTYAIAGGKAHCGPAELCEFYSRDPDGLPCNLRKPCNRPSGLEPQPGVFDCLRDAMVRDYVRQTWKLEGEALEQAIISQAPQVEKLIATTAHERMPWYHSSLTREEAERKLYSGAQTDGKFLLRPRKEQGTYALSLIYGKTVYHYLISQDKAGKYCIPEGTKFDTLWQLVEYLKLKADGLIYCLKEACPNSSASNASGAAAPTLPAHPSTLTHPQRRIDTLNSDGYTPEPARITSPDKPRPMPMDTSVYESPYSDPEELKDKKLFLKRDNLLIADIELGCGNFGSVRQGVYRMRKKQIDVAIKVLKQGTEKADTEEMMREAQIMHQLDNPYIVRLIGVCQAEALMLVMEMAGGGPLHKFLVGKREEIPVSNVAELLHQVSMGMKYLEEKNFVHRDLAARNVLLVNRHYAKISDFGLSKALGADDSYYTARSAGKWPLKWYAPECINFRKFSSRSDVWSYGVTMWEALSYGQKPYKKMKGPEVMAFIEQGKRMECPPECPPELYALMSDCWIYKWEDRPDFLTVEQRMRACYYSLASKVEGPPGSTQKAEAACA
# How it was run: as §1
# Itk = biological target: T3, Itk (Homo sapiens, UniProt Q08881); test: Kinase inhibition assay (33P transfer), Itk; settings: read-out: Itk-1
# T3 construct: Kinases are expressed as either kinase domains or full length constructs; made in house
# T3 sequence (Q08881 1-620): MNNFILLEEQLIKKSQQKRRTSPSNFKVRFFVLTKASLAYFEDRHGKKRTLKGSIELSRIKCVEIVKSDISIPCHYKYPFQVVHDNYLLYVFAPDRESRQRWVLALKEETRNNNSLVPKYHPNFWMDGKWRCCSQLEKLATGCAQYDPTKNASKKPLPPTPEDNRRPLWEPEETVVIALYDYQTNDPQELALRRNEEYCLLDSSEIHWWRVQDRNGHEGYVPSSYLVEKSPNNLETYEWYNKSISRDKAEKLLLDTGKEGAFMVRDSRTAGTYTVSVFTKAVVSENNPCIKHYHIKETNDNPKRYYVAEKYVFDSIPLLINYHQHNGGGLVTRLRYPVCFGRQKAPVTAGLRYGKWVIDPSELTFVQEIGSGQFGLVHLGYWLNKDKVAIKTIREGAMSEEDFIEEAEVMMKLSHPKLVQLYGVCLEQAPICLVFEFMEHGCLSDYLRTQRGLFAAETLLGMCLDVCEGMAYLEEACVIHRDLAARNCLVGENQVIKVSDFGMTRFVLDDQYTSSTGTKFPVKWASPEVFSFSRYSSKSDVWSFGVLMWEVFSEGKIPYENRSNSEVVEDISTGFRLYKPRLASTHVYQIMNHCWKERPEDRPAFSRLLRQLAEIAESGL
# How it was run: (§2)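 Each enzyme, purified to near homogeneity by affinity chromatography, was incubated with ATP carrying 33P and a substrate polymer fixed to the plate. Unbound label was removed with dilute phosphoric acid (0.5%) before adding scintillant and counting. Potency is given as the compound level cutting label uptake by 50%.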
# EGFR = biological target: T4, EGFR (Homo sapiens, UniProt P00533); test: Kinase inhibition assay (33P transfer), EGFR; settings: Table 2, kinase inhibition class; read-out: EGFR-1
# T4 construct: Kinases are expressed as either kinase domains or full length constructs; made in house
# How it was run: as §2
# ErbB2 = biological target: T5, ErbB2 (Homo sapiens, UniProt P04626); test: Kinase inhibition assay (33P transfer), ErbB2; settings: read-out: ErbB2-2
# T5 construct: Kinases are expressed as either kinase domains or full length constructs; made in house
# How it was run: as §2
# Kdr = biological target: T6, Kdr (Homo sapiens, UniProt P35968); test: Kinase inhibition assay (33P transfer), Kdr; settings: read-out: KDR-1
# T6 construct: Kinases are expressed as either kinase domains or full length constructs; made in house
# How it was run: as §1
# c-Met = biological target: T7, c-Met (Homo sapiens, UniProt P08581); test: Kinase inhibition assay (33P transfer), c-Met; settings: Table 2, kinase inhibition class; read-out: Met-1
# T7 construct: Kinases are expressed as either kinase domains or full length constructs; made in house
# T7 sequence (P08581 25-1390): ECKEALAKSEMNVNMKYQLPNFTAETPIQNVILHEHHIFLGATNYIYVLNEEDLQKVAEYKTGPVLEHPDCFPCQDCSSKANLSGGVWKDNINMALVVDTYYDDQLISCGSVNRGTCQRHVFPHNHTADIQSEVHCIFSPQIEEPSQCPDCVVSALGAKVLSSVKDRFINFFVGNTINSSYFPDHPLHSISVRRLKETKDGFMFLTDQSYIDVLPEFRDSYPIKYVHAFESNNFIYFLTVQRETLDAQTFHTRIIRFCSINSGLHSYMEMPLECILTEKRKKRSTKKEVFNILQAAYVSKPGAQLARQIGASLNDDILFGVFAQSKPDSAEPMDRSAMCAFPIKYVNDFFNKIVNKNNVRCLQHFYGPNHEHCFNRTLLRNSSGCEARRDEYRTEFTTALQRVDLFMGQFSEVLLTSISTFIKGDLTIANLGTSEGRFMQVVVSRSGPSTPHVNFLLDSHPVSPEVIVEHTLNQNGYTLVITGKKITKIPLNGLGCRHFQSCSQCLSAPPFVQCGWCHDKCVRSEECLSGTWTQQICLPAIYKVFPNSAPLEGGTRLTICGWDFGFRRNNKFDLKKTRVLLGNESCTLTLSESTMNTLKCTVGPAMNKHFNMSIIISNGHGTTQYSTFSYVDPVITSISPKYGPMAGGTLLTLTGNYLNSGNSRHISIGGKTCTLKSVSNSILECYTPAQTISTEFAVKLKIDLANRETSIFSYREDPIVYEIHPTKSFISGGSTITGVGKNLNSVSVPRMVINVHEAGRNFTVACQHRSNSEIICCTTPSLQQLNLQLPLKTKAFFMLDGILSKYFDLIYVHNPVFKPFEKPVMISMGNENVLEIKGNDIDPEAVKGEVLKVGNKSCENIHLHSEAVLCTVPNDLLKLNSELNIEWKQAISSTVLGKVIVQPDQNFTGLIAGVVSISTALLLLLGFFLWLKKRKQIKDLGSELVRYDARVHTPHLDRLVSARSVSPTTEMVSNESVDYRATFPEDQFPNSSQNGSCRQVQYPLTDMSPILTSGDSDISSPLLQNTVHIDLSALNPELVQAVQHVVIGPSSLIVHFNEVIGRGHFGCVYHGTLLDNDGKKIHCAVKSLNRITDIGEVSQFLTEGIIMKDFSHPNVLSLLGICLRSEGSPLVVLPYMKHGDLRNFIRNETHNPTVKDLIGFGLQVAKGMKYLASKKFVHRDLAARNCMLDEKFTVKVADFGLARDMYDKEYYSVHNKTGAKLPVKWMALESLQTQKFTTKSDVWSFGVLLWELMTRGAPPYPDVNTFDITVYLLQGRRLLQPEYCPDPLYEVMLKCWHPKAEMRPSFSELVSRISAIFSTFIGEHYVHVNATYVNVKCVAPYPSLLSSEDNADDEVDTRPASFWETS
# How it was run: as §2
# AKT = biological target: T8, AKT (Homo sapiens, UniProt Q9Y243); test: Kinase inhibition assay (33P transfer), AKT; settings: Table 2, kinase inhibition class; read-out: AKT3-1
# T8 construct: Kinases are expressed as either kinase domains or full length constructs; made in house
# T8 sequence (Q9Y243 whole entry, the tested form may be a part): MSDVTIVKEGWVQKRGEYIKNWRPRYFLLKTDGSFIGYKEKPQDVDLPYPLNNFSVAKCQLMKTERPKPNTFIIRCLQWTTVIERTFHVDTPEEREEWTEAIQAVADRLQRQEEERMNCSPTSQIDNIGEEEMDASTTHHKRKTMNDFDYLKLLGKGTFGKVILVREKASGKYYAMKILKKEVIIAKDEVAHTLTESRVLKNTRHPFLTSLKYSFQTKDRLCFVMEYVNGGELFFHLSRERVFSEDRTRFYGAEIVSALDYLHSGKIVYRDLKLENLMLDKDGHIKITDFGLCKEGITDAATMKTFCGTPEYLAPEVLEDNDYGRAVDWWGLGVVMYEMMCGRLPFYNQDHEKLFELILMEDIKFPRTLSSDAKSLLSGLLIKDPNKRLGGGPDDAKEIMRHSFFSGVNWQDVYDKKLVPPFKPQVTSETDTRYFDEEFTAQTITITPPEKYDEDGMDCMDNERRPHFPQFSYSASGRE
# How it was run: as §1
# IGFR-1 [1] = biological target: T9, IGFR-1 (Homo sapiens, UniProt P08069); test: Kinase inhibition assay, IGFR-1 (Table 2); settings: Table 2, kinase inhibition class
# T9 construct: Kinases are expressed as either kinase domains or full length constructs; made in house
# PDGFRB = biological target: T10, PDGFRB (Homo sapiens, UniProt P09619); test: Kinase inhibition assay (33P transfer), PDGFRB; settings: read-out: PDGFRB-1
# T10 construct: Kinases are expressed as either kinase domains or full length constructs; made in house
# T10 sequence (P09619 33-1106, species assumed): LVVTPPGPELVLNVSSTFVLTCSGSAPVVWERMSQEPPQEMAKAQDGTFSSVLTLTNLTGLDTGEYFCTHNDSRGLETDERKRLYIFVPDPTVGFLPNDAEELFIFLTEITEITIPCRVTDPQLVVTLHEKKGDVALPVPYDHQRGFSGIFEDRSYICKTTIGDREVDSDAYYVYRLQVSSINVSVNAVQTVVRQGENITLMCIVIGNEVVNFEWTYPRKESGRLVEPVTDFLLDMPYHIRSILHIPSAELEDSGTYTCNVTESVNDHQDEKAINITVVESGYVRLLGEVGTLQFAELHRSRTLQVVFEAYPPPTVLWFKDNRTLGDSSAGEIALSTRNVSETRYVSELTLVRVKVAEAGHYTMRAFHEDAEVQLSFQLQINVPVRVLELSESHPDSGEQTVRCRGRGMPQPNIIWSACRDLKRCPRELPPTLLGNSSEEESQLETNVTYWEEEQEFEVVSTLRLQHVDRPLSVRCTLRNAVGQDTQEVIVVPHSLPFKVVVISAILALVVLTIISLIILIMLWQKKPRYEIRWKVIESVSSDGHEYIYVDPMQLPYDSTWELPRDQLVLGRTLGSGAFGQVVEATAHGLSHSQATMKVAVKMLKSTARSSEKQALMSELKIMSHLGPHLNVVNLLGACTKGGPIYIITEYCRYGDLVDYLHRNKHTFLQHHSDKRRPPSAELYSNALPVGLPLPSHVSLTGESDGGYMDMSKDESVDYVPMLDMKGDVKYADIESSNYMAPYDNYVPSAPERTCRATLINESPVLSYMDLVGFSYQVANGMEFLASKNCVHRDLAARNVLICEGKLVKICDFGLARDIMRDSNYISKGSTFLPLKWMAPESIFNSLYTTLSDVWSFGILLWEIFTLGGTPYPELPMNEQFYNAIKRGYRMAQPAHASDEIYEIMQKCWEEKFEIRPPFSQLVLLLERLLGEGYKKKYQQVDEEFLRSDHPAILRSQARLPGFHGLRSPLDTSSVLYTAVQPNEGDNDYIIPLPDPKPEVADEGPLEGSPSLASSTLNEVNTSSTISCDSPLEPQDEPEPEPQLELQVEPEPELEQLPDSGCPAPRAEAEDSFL
# Tek = biological target: T11, Tek (Homo sapiens, UniProt Q02763); test: Kinase inhibition assay (33P transfer), Tek; settings: read-out: Tek-1
# T11 construct: Kinases are expressed as either kinase domains or full length constructs; made in house
# T11 sequence (Q02763 23-1124, species assumed): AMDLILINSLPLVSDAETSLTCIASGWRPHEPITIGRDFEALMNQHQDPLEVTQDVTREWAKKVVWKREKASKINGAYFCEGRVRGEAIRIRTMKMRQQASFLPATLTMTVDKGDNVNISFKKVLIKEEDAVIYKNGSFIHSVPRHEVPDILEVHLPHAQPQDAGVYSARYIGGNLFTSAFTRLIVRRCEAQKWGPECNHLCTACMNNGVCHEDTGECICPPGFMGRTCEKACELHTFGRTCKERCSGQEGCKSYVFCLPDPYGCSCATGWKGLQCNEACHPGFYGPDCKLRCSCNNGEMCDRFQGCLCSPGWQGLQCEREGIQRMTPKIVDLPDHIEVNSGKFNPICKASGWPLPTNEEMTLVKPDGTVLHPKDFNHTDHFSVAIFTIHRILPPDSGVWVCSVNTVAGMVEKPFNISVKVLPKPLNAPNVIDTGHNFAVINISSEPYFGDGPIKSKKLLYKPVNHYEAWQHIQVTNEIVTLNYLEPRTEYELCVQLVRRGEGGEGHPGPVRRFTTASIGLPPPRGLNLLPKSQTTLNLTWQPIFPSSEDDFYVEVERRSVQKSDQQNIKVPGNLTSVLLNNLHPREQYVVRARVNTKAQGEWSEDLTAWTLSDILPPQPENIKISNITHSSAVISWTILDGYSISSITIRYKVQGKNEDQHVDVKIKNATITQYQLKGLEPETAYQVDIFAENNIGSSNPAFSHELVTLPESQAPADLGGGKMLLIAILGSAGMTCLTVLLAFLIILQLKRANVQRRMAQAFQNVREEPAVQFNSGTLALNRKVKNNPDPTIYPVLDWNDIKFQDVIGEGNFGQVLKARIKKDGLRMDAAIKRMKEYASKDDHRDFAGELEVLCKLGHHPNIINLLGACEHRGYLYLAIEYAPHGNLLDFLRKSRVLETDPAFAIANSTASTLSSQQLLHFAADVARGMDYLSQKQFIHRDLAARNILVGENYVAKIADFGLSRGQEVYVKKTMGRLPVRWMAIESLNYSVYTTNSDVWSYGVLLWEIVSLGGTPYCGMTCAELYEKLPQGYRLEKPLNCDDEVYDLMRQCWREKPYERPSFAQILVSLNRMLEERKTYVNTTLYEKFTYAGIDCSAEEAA
# How it was run: as §2
# IGFR-1 [2] = biological target: T9, IGFR-1; test: Kinase inhibition assay (33P transfer), IGFR-1; settings: Table 2, kinase inhibition class
# T1 sequence (P06239 whole entry, species assumed, the tested form may be a part): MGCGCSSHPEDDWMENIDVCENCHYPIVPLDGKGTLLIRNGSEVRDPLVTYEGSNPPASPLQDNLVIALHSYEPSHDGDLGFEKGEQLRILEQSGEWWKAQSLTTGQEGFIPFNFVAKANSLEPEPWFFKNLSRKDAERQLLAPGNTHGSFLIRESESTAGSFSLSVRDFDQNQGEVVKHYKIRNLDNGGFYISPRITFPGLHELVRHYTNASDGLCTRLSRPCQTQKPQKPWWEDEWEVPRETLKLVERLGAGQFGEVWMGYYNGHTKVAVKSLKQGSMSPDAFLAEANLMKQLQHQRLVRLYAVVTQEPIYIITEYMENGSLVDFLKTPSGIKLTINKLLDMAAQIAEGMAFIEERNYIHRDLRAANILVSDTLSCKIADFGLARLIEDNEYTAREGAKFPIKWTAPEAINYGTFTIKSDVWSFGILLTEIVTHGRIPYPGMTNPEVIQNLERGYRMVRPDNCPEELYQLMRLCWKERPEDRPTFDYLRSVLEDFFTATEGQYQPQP
Structure (SMILES),pIC50 (Lck),pIC50 (Zap-70),pIC50 (Itk),pIC50 (EGFR),pIC50 (ErbB2),pIC50 (Kdr),pIC50 (c-Met),pIC50 (AKT),pIC50 (IGFR-1 [1]),pIC50 (PDGFRB),pIC50 (Lck; Table 3),pIC50 (Zap-70; Table 3),pIC50 (Itk; Table 3),pIC50 (Kdr; Table 3),pIC50 (Tek),pIC50 (IGFR-1 [2])
COc1cc(Nc2ncnc(-n3c(NCc4ccc(N(C)C)cc4)nc4ccccc43)n2)cc(OC)c1OC [Compound 593],5.34 to 6.12,< 5.07,< 5.07,5.18 to 5.34,5.18 to 5.34,5.34 to 6.12,< 5.07,< 5.07,> 6.12,5.34 to 6.12,,,,,,
COc1cc(Nc2ncnc(-n3c(NCc4ccc(Cl)cc4C)nc4ccccc43)n2)cc(OC)c1OC [Compound 597],5.35 to 6.12,< 5.07,< 5.07,5.07 to 5.18,5.35 to 6.12,5.35 to 6.12,< 5.07,5.18 to 5.35,5.07 to 5.18,5.18 to 5.35,,,,,,
COc1cc(Nc2ncnc(Nc3ccc(NC(C)=O)c(C(F)(F)F)c3)n2)cc(OC)c1OC [Compound 617],5.30 to 6.08,< 5.03,< 5.03,5.14 to 5.30,< 5.03,5.30 to 6.08,< 5.03,< 5.03,5.14 to 5.30,5.30 to 6.08,,,,,,
COc1ccc(Nc2ncnc(-c3ccccc3)n2)cc1 [Compound 14],,,,< 4.79,,,< 4.79,< 4.79,,,< 4.79,4.79 to 4.90,< 4.79,< 4.79,< 4.79,< 4.79
CC(C)(C)OC(=O)Nc1ccc(Nc2ncnc(-c3ccccc3)n2)cc1 [Compound 19],,,,< 4.91,,,< 4.91,< 4.91,,,< 4.91,5.02 to 5.18,< 4.91,5.02 to 5.18,< 4.91,5.02 to 5.18
Oc1ccc(Nc2ncnc(-c3ccccc3)n2)cc1 [Compound 11],,,,< 4.77,,,< 4.77,< 4.77,,,4.88 to 5.04,< 4.77,< 4.77,5.04 to 5.82,< 4.77,< 4.77
COc1cccc(Nc2ncnc(-c3ccccc3)n2)c1 [Compound 13],,,,< 4.79,,,< 4.79,< 4.79,,,< 4.79,< 4.79,< 4.79,< 4.79,< 4.79,< 4.79
Oc1cccc(Nc2ncnc(-c3ccccc3)n2)c1 [Compound 18],,,,< 4.77,,,< 4.77,< 4.77,,,4.88 to 5.04,< 4.77,< 4.77,4.88 to 5.04,< 4.77,< 4.77
COc1cc(Nc2ncnc(-c3ccccc3)n2)cc(OC)c1 [Compound 15],,,,< 4.84,,,< 4.84,< 4.84,,,< 4.84,4.84 to 4.94,< 4.84,< 4.84,< 4.84,< 4.84
COc1ccccc1Nc1ncnc(-c2ccccc2)n1 [Compound 12],,,,< 4.79,,,< 4.79,< 4.79,,,< 4.79,< 4.79,< 4.79,4.79 to 4.90,< 4.79,< 4.79
